Read-outs that look alike come from different tables or passages of the source.
Tests used:
[1] = molecular target: T1, cytoplasmic domain of the human CSF-1R (Homo sapiens, UniProt P07333); assay: In vitro kinase assay for colony stimulating factor-1 receptor (AlphaScreen); type: biochemical; settings: tested at about 1 μM, read-out: CSF-1R percent inhibition
T1 construct: Recombinant protein corresponding to the cytoplasmic domain of the human CSF-1R; purchased Invitrogen Corporation, Carlsbad, Calif; PV3249
T1 sequence (P07333 539-972 limits assumed): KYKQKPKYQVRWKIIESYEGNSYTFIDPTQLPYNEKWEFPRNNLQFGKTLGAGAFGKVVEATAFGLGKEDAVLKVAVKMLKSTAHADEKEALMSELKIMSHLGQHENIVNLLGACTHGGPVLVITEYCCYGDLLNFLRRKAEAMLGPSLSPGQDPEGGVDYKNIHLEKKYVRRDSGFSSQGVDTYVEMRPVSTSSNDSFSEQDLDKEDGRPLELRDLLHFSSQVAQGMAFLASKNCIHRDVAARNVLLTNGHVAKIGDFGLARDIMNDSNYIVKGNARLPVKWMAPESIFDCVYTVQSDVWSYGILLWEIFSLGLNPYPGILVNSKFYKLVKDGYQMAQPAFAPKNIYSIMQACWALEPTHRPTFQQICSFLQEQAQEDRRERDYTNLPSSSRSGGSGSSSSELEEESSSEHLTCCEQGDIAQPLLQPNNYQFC
In short: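 Test compounds, serially diluted threefold starting at 25 μM, were mixed with Hepes buffer (pH 7.5, Mg2+/Mn2+, DTT, BSA, Tween 80) containing 1 μM ATP. Recombinant kinase was present at 4 nM. After stopping, beads were added and plates were read the next day by AlphaScreen.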

[2] = system: MNFS60 (murine AML cells); assay: Cell viability assay in MCSF dependent MNFS60 cells (Cell Titer Glo); type: cell-based; settings: Mus musculus, tested at about 1 μM, read-out: M-NFS-60 CP percent inhibition
In short: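 Cells are cultured with 10 ng/ml MCSF and test compound for 72 hrs at 37° C. in 5% CO2. CellTiter-Glo reagent is then added to gauge viable cell number, and EC50s are fitted from triplicates.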

[3] = molecular target: T2, kinase domain of PDGFRβ (Homo sapiens, UniProt P09619); assay: Inhibition of PDGFRb kinase signaling in an in vitro biochemical assay (alphascreen); settings: tested at about 1 μM; for inhibition at 1 µM: read-out: PDGFRβ percent inhibition
T2 construct: The kinase domain of PDGFRβ was assayed in 50 mM Hepes; purchased Invitrogen P3082
T2 sequence (P09619 600-962 limits assumed): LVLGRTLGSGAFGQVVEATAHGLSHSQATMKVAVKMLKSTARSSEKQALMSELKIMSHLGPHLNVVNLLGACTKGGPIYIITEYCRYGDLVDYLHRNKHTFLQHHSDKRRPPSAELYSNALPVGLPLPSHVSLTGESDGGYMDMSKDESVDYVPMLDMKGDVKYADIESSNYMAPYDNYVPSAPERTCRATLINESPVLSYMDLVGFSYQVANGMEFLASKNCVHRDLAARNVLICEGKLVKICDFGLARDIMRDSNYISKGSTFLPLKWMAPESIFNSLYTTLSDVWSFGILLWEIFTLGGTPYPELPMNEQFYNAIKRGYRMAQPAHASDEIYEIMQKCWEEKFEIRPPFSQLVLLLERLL

[4] = molecular target: T3, full-length human CSF-1R receptor (Homo sapiens, UniProt P07333); assay: In vitro inhibition of CSF-1R receptor tyrosine phosphorylation in transfected HEK293H cells stimulated with MCSF; type: cell-based; settings: HEK293-H, tested at about 1 μM, read-out: pCSF1R percent inhibition
T3 construct: transfected with the full-length human CSF-1R receptor cloned in house; expressed in transfected cells; host or cells: HEK293H (Invitrogen Cat. #11631017)
T3 sequence (P07333 20-972): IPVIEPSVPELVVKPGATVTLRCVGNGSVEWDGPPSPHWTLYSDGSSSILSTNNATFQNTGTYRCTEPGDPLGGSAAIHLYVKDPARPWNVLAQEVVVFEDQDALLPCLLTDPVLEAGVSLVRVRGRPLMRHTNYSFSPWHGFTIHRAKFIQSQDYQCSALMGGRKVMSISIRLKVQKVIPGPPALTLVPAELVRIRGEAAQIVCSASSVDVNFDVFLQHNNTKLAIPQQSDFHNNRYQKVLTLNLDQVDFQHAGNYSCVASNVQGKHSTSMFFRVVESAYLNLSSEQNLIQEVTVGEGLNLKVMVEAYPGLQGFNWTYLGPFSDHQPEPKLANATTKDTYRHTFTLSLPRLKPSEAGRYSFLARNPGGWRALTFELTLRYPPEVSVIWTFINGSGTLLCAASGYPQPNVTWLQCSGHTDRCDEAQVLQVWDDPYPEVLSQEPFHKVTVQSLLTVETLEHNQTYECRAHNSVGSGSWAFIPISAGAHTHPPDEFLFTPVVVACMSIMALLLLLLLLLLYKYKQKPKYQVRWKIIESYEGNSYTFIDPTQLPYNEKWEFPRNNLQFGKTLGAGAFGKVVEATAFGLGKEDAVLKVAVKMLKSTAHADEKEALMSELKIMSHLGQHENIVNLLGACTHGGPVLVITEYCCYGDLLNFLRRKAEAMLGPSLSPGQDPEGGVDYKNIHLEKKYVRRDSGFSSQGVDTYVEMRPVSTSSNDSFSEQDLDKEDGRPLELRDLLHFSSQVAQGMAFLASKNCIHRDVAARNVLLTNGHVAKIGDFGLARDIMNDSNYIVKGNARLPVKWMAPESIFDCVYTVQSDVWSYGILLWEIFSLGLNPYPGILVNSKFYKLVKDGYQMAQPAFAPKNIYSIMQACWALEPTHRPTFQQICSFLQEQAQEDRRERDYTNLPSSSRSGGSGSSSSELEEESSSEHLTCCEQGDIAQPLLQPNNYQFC
Procedure: The lysate was then transferred to total CSF-1R antibody coated 96-well plates that had already been blocked with 3% Blocker A from Mesoscale discovery (MSD) for 2 hours and washed afterwards. Lysates were incubated overnight at 4° C. and the plates were then washed 4× with MSD Tris Wash Buffer. […] The plates were read on the Sector 6000 instrument (MSD). Raw data was imported in Abase and EC50s calculated with XL-fit data analysis software.

[5] = molecular target: T4, kinase domain of cKIT (Homo sapiens, UniProt P10721); assay: Inhibition of cKIT kinase signaling in an in vitro biochemical assay (alphascreen); settings: tested at about 1 μM; for inhibition at 1 µM: read-out: cKit percent inhibition
T4 construct: The kinase domain of cKIT was assayed in 50 mM Hepes; purchased Upstate 14-559
T4 sequence (P10721 589-937 limits assumed): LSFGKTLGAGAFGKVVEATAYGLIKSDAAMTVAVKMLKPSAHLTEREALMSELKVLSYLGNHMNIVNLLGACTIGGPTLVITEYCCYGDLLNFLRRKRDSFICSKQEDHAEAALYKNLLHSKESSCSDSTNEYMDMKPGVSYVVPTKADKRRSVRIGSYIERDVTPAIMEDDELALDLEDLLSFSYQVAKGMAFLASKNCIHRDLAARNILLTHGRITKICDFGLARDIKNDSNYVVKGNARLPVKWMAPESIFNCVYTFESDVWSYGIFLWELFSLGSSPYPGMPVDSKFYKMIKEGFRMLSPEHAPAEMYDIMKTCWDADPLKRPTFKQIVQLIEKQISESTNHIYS

inhibition at 1 µM ([1]; compounds of Table 3) | inhibition at 1 µM ([3]; compounds of Table 3) | inhibition at 1 µM ([4]; compounds of Table 3) | inhibition at 1 µM ([5]; compounds of Table 3) | inhibition at 1 µM [1] | inhibition at 1 µM [3] | inhibition at 1 µM ([4]; HEK293H cells) | inhibition at 1 µM [5] | PDGFRβ percent inhibition [3] | cKit percent inhibition [5] | SMILES | inhibition at 1 µM ([2]; compounds of Table 3) | inhibition at 1 µM ([2]; MCSF dependent MNFS60 cells) | inhibition at 1 µM ([2]; MNFS60 cells)
– | – | – | – | 100% | 61% | 87% | 84% | – | – | c1cc(Oc2ccc3nc(NCC4CCCCC4)sc3c2)cc(-c2ncco2)n1 [Example 342, N-(cyclohexylmethyl)-6-(2-(oxazol-2-yl)pyridin-4-yloxy)benzo[d]thiazol-2-amine] | – | 75% | –
100% | 0% | 98% | 25% | – | – | – | – | – | – | COCCn1cc(-c2cc(Oc3ccc4nc(N[C@@H]5CCCC[C@H]5O)sc4c3)ccn2)cn1 [Example 260, (1R,2R)-2-(6-(2-(1-(2-methoxyethyl)-1H-pyrazol-4-yl)pyridin-4-yloxy)benzo[d]thiazol-2-ylamino)cyclohexanol] | 100% | – | –
– | – | – | – | 100% | 83% | 95% | 90% | – | – | CNC(=O)c1cc(Oc2ccc3nc(NCC4CCCCC4)sc3c2)ccn1 [Compound 128, 4-[2-(Cyclohexylmethyl-amino)-benzothiazol-6-yloxy]-pyridine-2-carboxylic acid methylamide] | – | – | 95%
100% | 2% | 65% | 0% | – | – | – | – | – | – | CNC(=O)c1cc(Oc2ccc3nc(NC(CO)C4CCOCC4)sc3c2)ccn1 (centres unmarked) [Compound 95] | 60% | – | –
– | – | – | – | 97% | 1% | 0% | 8% | – | – | CNC(=O)c1cc(Oc2ccc3nc(N[C@@H](CO)C4CCCCC4)oc3c2)ccn1 [Compound 67, 4-[2-((R)-1-Cyclohexyl-2-hydroxy-ethylamino)-benzo-oxazol-6-yloxy]-pyridine-2-carboxylic acid methylamide] | – | – | 10%
98% | 24% | 55% | 46% | – | – | – | – | – | – | C[C@H](Nc1nc2ccc(Oc3ccnc(-c4nc5c([nH]4)CCCC5)c3)cc2s1)C1CCCCC1 [Example 271, (S)-N-(1-cyclohexylethyl)-6-(2-(4,5,6,7-tetrahydro-1H-benzo[d]imidazol-2-yl)pyridin-4-yloxy)benzo[d]thiazol-2-amine] | 54% | – | –
– | – | – | – | 100% | 41% | 97% | 52% | – | – | CNC(=O)c1cc(Oc2ccc3nc(N[C@H]4c5ccccc5C[C@H]4O)sc3c2)ccn1 [Example 321, 4-(2-((1S,2R)-2-hydroxy-2,3-dihydro-1H-inden-1-ylamino)benzo[d]thiazol-6-yloxy)-N-methylpicolinamide] | – | 82% | –
– | – | – | – | 99% | 10% | 63% | 18% | – | – | CNC(=O)c1cc(Oc2ccc3nc(NC4CCCc5ccccc54)oc3c2)ccn1 (centres unmarked) [Compound 104, 4-[2-(1,2,3,4-Tetrahydro-naphthalen-1-ylamino)-benzooxazol-6-yloxy]-pyridine-2-carboxylic acid methylamide] | – | – | 47%

Second part, the molecule before the results:

SMILES | inhibition at 1 µM ([1]; compounds of Table 3) | inhibition at 1 µM ([3]; compounds of Table 3) | inhibition at 1 µM ([4]; compounds of Table 3) | inhibition at 1 µM ([5]; compounds of Table 3) | inhibition at 1 µM [1] | inhibition at 1 µM [3] | inhibition at 1 µM ([4]; HEK293H cells) | inhibition at 1 µM [5] | PDGFRβ percent inhibition [3] | cKit percent inhibition [5] | inhibition at 1 µM ([2]; compounds of Table 3) | inhibition at 1 µM ([2]; MCSF dependent MNFS60 cells) | inhibition at 1 µM ([2]; MNFS60 cells)
O[C@@H]1CCCC[C@H]1Nc1nc2ccc(Oc3ccnc4c(F)cccc34)cc2s1 [Example 263, (1R,2R)-2-(6-(8-fluoroquinolin-4-yloxy)benzo[d]thiazol-2-ylamino)cyclohexanol] | 99% | 0% | 24% | 12% | – | – | – | – | – | – | 22% | – | –
CC(C)CONC(=O)c1cc(Oc2ccc3nc(NCC4CCCCC4)sc3c2)ccn1 [Example 380, 4-(2-(cyclohexylmethylamino)benzo[d]thiazol-6-yloxy)-N-isobutoxypicolinamide] | – | – | – | – | 100% | 49% | 94% | 53% | – | – | – | 79% | –
CNC(=O)c1cc(Oc2ccc3nc(N[C@H](CO)C(C)C)sc3c2)ccn1 [Compound 102] | 100% | 9% | 88% | 0% | – | – | – | – | – | – | 75% | – | –
CNC(=O)c1cc(Oc2ccc3nc(N[C@H]4CCCN(S(=O)(=O)C5CC5)C4)sc3c2)ccn1 [Example 367, (S)-4-(2-(1-(cyclopropylsulfonyl)piperidin-3-ylamino)benzo[d]thiazol-6-yloxy)-N-methylpicolinamide] | – | – | – | – | 100% | 7% | 89% | 13% | – | – | – | 81% | –
CNC(=O)c1cc(Oc2ccc3nc(N[C@@H]4CCCC[C@H]4O)sc3c2Br)ccn1 [Example 376, 4-(7-bromo-2-((1R,2R)-2-hydroxycyclohexylamino)benzo[d]thiazol-6-yloxy)-N-methylpicolinamide] | – | – | – | – | 100% | 28% | 77% | 72% | – | – | – | 87% | –
CCOc1ccccc1CNc1nc2ccc(Oc3ccnc(C(=O)NC)c3)cc2o1 [Compound 96, 4-[2-(2-Ethoxy-benzylamino)-benzooxazol-6-yloxy]-pyridine-2-carboxylic acid methylamide] | – | – | – | – | 99% | 3% | 89% | 33% | – | – | – | – | 75%
CNC(=O)c1cc(Oc2ccc3nc(NCc4cccc(F)c4F)sc3c2)ccn1 [Compound 147, 4-[2-(2,3-Difluoro-benzylamino)-benzothiazol-6-yloxy]-pyridine-2-carboxylic acid methylamide] | – | – | – | – | 98% | 0% | 97% | 90% | – | – | – | – | 90%
CNC(=O)c1cc(Oc2ccc3nc(NCc4cccc5c4OCCCO5)oc3c2)ccn1 [Compound 108, 4-{2-[(3,4-Dihydro-2H-benzo[b][1,4]dioxepin-6-ylmethyl)-amino]-benzooxazol-6-yloxy}-pyridine-2-carboxylic acid methylamide] | – | – | – | – | 99% | 40% | 98% | 100% | – | – | – | – | 100%
Cc1nc(-c2cc(Oc3ccc4nc(N[C@@H]5CCCC[C@H]5O)sc4c3)ccn2)[nH]c1C [Example 232, (1R,2R)-2-(6-(2-(4,5-dimethyl-1H-imidazol-2-yl)pyridin-4-yloxy)benzo[d]thiazol-2-ylamino)cyclohexanol] | 100% | 64% | 99% | 34% | – | – | – | – | – | – | 100% | – | –
CNC(=O)c1cc(Oc2ccc3nc(N[C@@H]4CCCC[C@H]4O)sc3c2)ccn1 [Compound 157, 4-[2-((1R,2R)-2-Hydroxy-cyclohexylamino)-benzothiazol-6-yloxy]-pyridine-2-carboxylic acid methylamide] | – | – | – | – | 100% | – | 99% | – | 20% | 20% | – | – | 100%
CNC(=O)c1cc(Oc2ccc3nc(NC4CCCCC4)sc3c2)ccn1 [Compound 135, 4-(2-Cyclohexylamino-benzothiazol-6-yloxy)-pyridine-2-carboxylic acid methylamide] | – | – | – | – | 100% | 20% | 91% | 68% | – | – | – | – | 96%

— patent US8173689B2 (Novartis AG, priority 2006, dated 2012)
